Where two headings read alike, the source gives them in different places.
Tests used:
[1] = molecular target: H1N1 NA (A/PuertoRico/8/1934) (Influenza A virus, UniProt P03468); test: biochemical
[2] = molecular target: H5N1 NA (A/Goose/Guangdong/SH7/2013) (Influenza A virus, UniProt V5P6N1); format: biochemical
[3] = system: A/Goose/Guangdong/SH7/2013 (H5N1); test: microbe, parasite or virus in culture; format: cell-based; details: read-out: EC50 towards influenza virus H5N1
[4] = system: A/Goose/Jiangsu/1306/2014 (H5N8); test: microbe, parasite or virus in culture; format: cell-based; details: read-out: EC50 towards influenza virus H5N8
[5] = system: A/PR/8/34 (H1N1); test: microbe, parasite or virus in culture; format: cell-based; details: read-out: EC50 towards influenza virus H1N1
[6] = system: A/Wisconsin/67/05 (H3N2); test: microbe, parasite or virus in culture; format: cell-based; details: read-out: EC50 towards influenza virus H3N2
[7] = system: Kunming mice; details: mouse, in vivo
[8] = in vitro; details: chicken
[9] = in vitro; details: dog
[10] = system: N1, H5N1; details: cited from earlier work

CCC(CC)O[C@@H]1C=C(C(=O)O)C[C@H](NCc2ccc(OCc3ccccc3B(O)O)cc2)[C@H]1NC(C)=O [Compound 1c, (3R,4R,5S)-4-acetamido-5-((4-((2-boronobenzyl)oxy)benzyl)amino)-3-(pentan-3-yloxy)cyclohex-1-ene-1-carboxylic acid]
IC50 [1]: 690 ± 130 nM
melting point: 146.3 to 150.5 °C (dec.)

CCC(CC)O[C@@H]1C=C(C(=O)O)C[C@H](NCc2ccc(OCc3cccc(B(O)O)c3)cc2)[C@H]1NC(C)=O [Compound 2c, (3R,4R,5S)-4-acetamido-5-((4-((3-boronobenzyl)oxy)benzyl)amino)-3-(pentan-3-yloxy)cyclohex-1-ene-1-carboxylic acid]
IC50 [1]: 60 ± 7 nM
fold lower potency than OSC against H5N1 in the enzymatic assay [2]: 3.9 fold
EC50 ([3]; Influenza A virus, H5N1, CEF): 690 ± 91 nM
EC50 ([4]; Influenza A virus, H5N8, CEF): 1570 ± 210 nM
EC50 ([5]; Influenza A virus, MDCK): 30 ± 30 nM
EC50 ([6]; Influenza A virus, H3N2, MDCK): 11100 ± 1150 nM
behavior abnormalities (lethargy, clonic convulsions, anorexia, ruffled fur) [7]: no significant behavior abnormalities
body weight [7]: increased gradually
death [7]: no death occurred
acute toxicity ([7]; 1000 mg/kg): no acute toxicity
CC50 [8]: 143000 ± 9560 nM
CC50 [9]: > 250000 nM

CCC(CC)O[C@@H]1C=C(C(=O)O)C[C@H](NCc2ccc(OCc3ccc(B(O)O)cc3)cc2)[C@H]1NC(C)=O [Compound 3c, (3R,4R,5S)-4-acetamido-5-((4-((4-boronobenzyl)oxy)benzyl)amino)-3-(pentan-3-yloxy)cyclohex-1-ene-1-carboxylic acid]
IC50 [1]: 45 ± 6.7 nM
EC50 ([3]; Influenza A virus, H5N1, CEF): 3200 ± 440 nM
EC50 ([4]; Influenza A virus, H5N8, CEF): 2510 ± 230 nM
EC50 ([5]; Influenza A virus, MDCK): 20 ± 10 nM
EC50 ([6]; Influenza A virus, H3N2, MDCK): 3080 ± 590 nM
melting point: 168.3 to 172.1 °C (dec.)
CC50 [8]: 289000 ± 15800 nM
CC50 [9]: > 250000 nM

CCC(CC)O[C@@H]1C=C(C(=O)O)C[C@H](NCc2ccc(OCc3ccccc3C(=O)O)cc2)[C@H]1NC(C)=O [Compound 4c, 2-((4-((((1S,5R,6R)-6-acetamido-3-carboxy-5-(pentan-3-yloxy)cyclohex-3-en-1-yl)amino)methyl)phenoxy)methyl)benzoic acid]
IC50 [1]: 15000 ± 880 nM
melting point: 177.1 to 178.9 °C

CCC(CC)O[C@@H]1C=C(C(=O)O)C[C@H](NCc2ccc(OCc3cccc(C(=O)O)c3)cc2)[C@H]1NC(C)=O [Compound 5c, 3-((4-((((1S,5R,6R)-6-acetamido-3-carboxy-5-(pentan-3-yloxy)cyclohex-3-en-1-yl)amino)methyl)phenoxy)methyl)benzoic acid]
IC50 [1]: 390 ± 40 nM

CCC(CC)O[C@@H]1C=C(C(=O)O)C[C@H](NCc2ccc(OCc3ccc(C(=O)O)cc3)cc2)[C@H]1NC(C)=O [Compound 6c, 4-((4-((((1S,5R,6R)-6-acetamido-3-carboxy-5-(pentan-3-yloxy)cyclohex-3-en-1-yl)amino)methyl)phenoxy)methyl)benzoic acid]
IC50 [1]: 600 ± 130 nM
melting point: 193.3 to 195.5 °C (dec.)

CCC(CC)O[C@@H]1C=C(C(=O)O)C[C@H](NCc2ccc(OCc3cc(C(=O)O)ccc3OC)cc2)[C@H]1NC(C)=O [Compound 7c, 3-((4-((((1S,5R,6R)-6-acetamido-3-carboxy-5-(pentan-3-yloxy)cyclohex-3-en-1-yl)amino)methyl)phenoxy)methyl)-4-methoxybenzoic acid]
IC50 [1]: 14000 ± 930 nM

CCC(CC)O[C@@H]1C=C(C(=O)O)C[C@H](NCc2ccc(OCc3ccc(C(=O)O)cc3Cl)cc2)[C@H]1NC(C)=O [Compound 8c, 4-((4-((((1S,5R,6R)-6-acetamido-3-carboxy-5-(pentan-3-yloxy)cyclohex-3-en-1-yl)amino)methyl)phenoxy)methyl)-3-chlorobenzoic acid]
IC50 [1]: 250 ± 31 nM
melting point: 189.3 to 192.1 °C (dec.)

CCC(CC)O[C@@H]1C=C(C(=O)O)C[C@H](NCc2ccc(OCc3ccc(C(=O)O)cc3OC)cc2)[C@H]1NC(C)=O [Compound 9c, 4-((4-((((1S,5R,6R)-6-acetamido-3-carboxy-5-(pentan-3-yloxy)cyclohex-3-en-1-yl)amino)methyl)phenoxy)methyl)-3-methoxybenzoic acid]
IC50 [1]: 3210 ± 380 nM
melting point: 171.2 to 175.7 °C (dec.)

CCC(CC)O[C@@H]1C=C(C(=O)O)C[C@H](NCc2ccc(OCc3ccc(C(=O)O)c(OC)c3)cc2)[C@H]1NC(C)=O [Compound 10c, 4-((4-((((1S,5R,6R)-6-acetamido-3-carboxy-5-(pentan-3-yloxy)cyclohex-3-en-1-yl)amino)methyl)phenoxy)methyl)-2-methoxybenzoic acid]
IC50 [1]: 3590 ± 25 nM
melting point: 190.5 to 195.1 °C (dec.)

CCC(CC)O[C@@H]1C=C(C(=O)O)C[C@H](NCc2ccc(OCc3ccccc3[N+](=O)[O-])cc2)[C@H]1NC(C)=O [Compound 11c, (3R,4R,5S)-4-acetamido-5-((4-((2-nitrobenzyl)oxy)benzyl)amino)-3-(pentan-3-yloxy)cyclohex-1-ene-1-carboxylic acid]
IC50 [1]: 1160 ± 110 nM
melting point: 150.8 to 152.7 °C

CCC(CC)O[C@@H]1C=C(C(=O)O)C[C@H](NCc2ccc(OCc3cccc([N+](=O)[O-])c3)cc2)[C@H]1NC(C)=O [Compound 12c, (3R,4R,5S)-4-acetamido-5-((4-((3-nitrobenzyl)oxy)benzyl)amino)-3-(pentan-3-yloxy)cyclohex-1-ene-1-carboxylic acid]
IC50 [1]: 170 ± 6.8 nM

CCC(CC)O[C@@H]1C=C(C(=O)O)C[C@H](NCc2ccc(OCc3ccc([N+](=O)[O-])cc3)cc2)[C@H]1NC(C)=O [Compound 13c, (3R,4R,5S)-4-acetamido-5-((4-((4-nitrobenzyl)oxy)benzyl)amino)-3-(pentan-3-yloxy)cyclohex-1-ene-1-carboxylic acid]
IC50 [1]: 500 ± 63 nM
melting point: 184.1 to 187.5 °C (dec.)

CCC(CC)O[C@@H]1C=C(C(=O)O)C[C@H](NCc2ccc(OCc3cccc(C(N)=O)c3)cc2)[C@H]1NC(C)=O [Compound 14c, (3R,4R,5S)-4-acetamido-5-((4-((3-carbamoylbenzyl)oxy)benzyl)amino)-3-(pentan-3-yloxy)cyclohex-1-ene-1-carboxylic acid]
IC50 [1]: 11 ± 1.3 nM
EC50 ([3]; Influenza A virus, H5N1, CEF): 1180 ± 170 nM
EC50 ([4]; Influenza A virus, H5N8, CEF): 2800 ± 460 nM
EC50 ([5]; Influenza A virus, MDCK): 210 ± 20 nM
EC50 ([6]; Influenza A virus, H3N2, MDCK): > 100000 nM
CC50 [8]: 291000 ± 17900 nM
CC50 [9]: > 250000 nM

CCC(CC)O[C@@H]1C=C(C(=O)O)C[C@H](NCc2ccc(OCc3ccc(C(N)=O)cc3)cc2)[C@H]1NC(C)=O [Compound 15c, (3R,4R,5S)-4-acetamido-5-((4-((4-carbamoylbenzyl)oxy)benzyl)amino)-3-(pentan-3-yloxy)cyclohex-1-ene-1-carboxylic acid]
IC50 [1]: 1730 ± 290 nM

CCC(CC)O[C@@H]1C=C(C(=O)O)C[C@H](NCc2ccc(OCc3cccc(S(N)(=O)=O)c3)cc2)[C@H]1NC(C)=O [Compound 16c, (3R,4R,5S)-4-acetamido-3-(pentan-3-yloxy)-5-((4-((3-sulfamoylbenzyl)oxy)benzyl)amino)cyclohex-1-ene-1-carboxylic acid]
IC50 [1]: 900 ± 130 nM
melting point: 193.2 to 198.1 °C (dec.)

CCC(CC)O[C@@H]1C=C(C(=O)O)C[C@H](NCc2ccc(OCc3ccc(S(N)(=O)=O)cc3)cc2)[C@H]1NC(C)=O [Compound 17c, (3R,4R,5S)-4-acetamido-3-(pentan-3-yloxy)-5-((4-((4-sulfamoylbenzyl)oxy)benzyl)amino)cyclohex-1-ene-1-carboxylic acid]
IC50 [1]: 27 ± 4.8 nM

CCC(CC)O[C@@H]1C=C(C(=O)O)C[C@H](NCc2ccc(OCc3ccc(S(=O)(=O)O)cc3)cc2)[C@H]1NC(C)=O [Compound 18c, (3R,4R,5S)-4-acetamido-3-(pentan-3-yloxy)-5-((4-((4-sulfobenzyl)oxy)benzyl)amino)cyclohex-1-ene-1-carboxylic acid]
IC50 [1]: 1640 ± 120 nM
melting point: 244.5 to 248.7 °C (dec.)

CCC(CC)OC1C=C(C(=O)O)CC(NCc2ccc(-c3ccccc3)cc2)C1NC(C)=O (stereo not drawn) [JMC20I]
IC50 [10]: 1.9 nM

CCC(CC)OC1C=C(C(=O)O)CC(NCc2ccc(Sc3cccs3)cc2)C1NC(C)=O (stereo not drawn) [JMC21g]
IC50 [10]: 3.83 nM

CCC(CC)OC1C=C(C(=O)O)CC(NCc2ccc(Sc3ccccc3)cc2)C1NC(C)=O (stereo not drawn) [JMC21h]
IC50 [10]: 0.96 nM

CCC(CC)O[C@@H]1C=C(C(=O)O)C[C@H](NCc2ccc3sc4ccccc4c3c2)[C@H]1NC(C)=O [JMC23d]
IC50 [10]: 0.27 nM

CCC(CC)OC1C=C(C(=O)O)CC(NCc2ccc(-c3cccs3)cc2)C1NC(C)=O (stereo not drawn) [JMC32]
IC50 [10]: 2.1 nM

CCC(CC)O[C@@H]1C=C(C(=O)O)C[C@H](N)[C@H]1NC(C)=O [OSC, oseltamivir carboxylate, reference compound]
EC50 [3]: 760 ± 66 nM
EC50 [4]: 2010 ± 61 nM
EC50 [6]: 360 ± 160 nM
CC50 [8]: 201000 ± 4050 nM
CC50 [9]: > 250000 nM

CC(=O)N[C@H]1[C@H]([C@H](O)[C@H](O)CO)OC(C(=O)O)=C[C@@H]1N=C(N)N [Zanamivir (ZAN), zanamivir, reference compound]
EC50 ([6]; Influenza A virus, H3N2, MDCK): 270 ± 30 nM
CC50 [9]: > 250000 nM

— article PMC9571049 (Molecules, 2022)
